Assay results from US20250134874A1, “PHARMACEUTICAL FORMULATIONS COMPRISING 3-({[(4R)-7-{METHYL[4-(PROPAN-2-YL)PHENYL]AMINO}-3,4-DIHYDRO-2H-1-BENZOPYRAN-4-YL]METHYL}AMINO)PYRIDINE-4-CARBOXYLIC ACID” (TACHYON THERAPEUTICS, INC., priority 2021, published 2025).

System: 301 cancer cell lines from different tumor types (OncoPanel; HD Biosciences)
Experiment: 2D cell viability inhibition assay (CellTiter-Glo) in cancer cell line panel
Format: cell-based
Design: key to AUC: AUC as fraction of the no-inhibition area (dose range × 0–100 % of control)
Conditions: for Emax: in %
Protocol: In a larger screening study, compound 1 was evaluated across a broad cancer cell line panel (OncoPanel; HD Biosciences) composed of 301 cancer cell lines from different tumor types.
2D cell viability inhibition assays were performed in multiwell plates seeded with cells from the panel. After seeding, the plates were cultured overnight in a humidified incubator at 37° C. to promote adherence. Assays were initiated in individual wells by adding either DMSO as a vehicle control, growth media as a blank, or serially diluted compound 1 (10 μM to 0.0005 μM with 1:3 serial dilution). Cultures were incubated for 168 hours after which the number of viable cells in each test well was assessed using the CellTiter-Glo® Luminescent Cell Viability Assay. Luminescence readouts were performed using an EnVision® Multilabel Reader and the compound 1 readouts were normalized to the DMSO control readouts, expressed as a percent of the control. Outliers were flagged out by visual inspection. Percent of control was plotted against the corresponding compound 1 concentration and the absolute IC50 value was determined using four-parameter logistic non-linear regression as the concentration where inhibition was 50% of the control. For maximum inhibition <50%, the absolute IC50 was reported as >10. In addition to EC50 and IC50, AUC was determined and was normalized to the area corresponding to theoretical no-inhibition (the rectangular area defined by the compound dose range and 0 to 100 in y). Emax was recorded as the minimum in y with the compound dose range. For those cell lines where Emax>40, EC50 was manually set to 10 μM. A hierarchical clustering algorithm based on Euclidean distance between the standardized input values and “Ward.D” method as implemented in R hclust function was used to visualize the compound 1 cellular potency data. The sensitive/moderate/resistant calls for each cell line was determined by visually inspecting the resulting clustering dendrogram. All the analyses were done in R Core Team.

[1] = Homo sapiens, TE-5, TE5 cell line
[2] = Homo sapiens, TE-6, TE6 cell line
[3] = Homo sapiens, TE-9, TE9 cell line
[4] = Homo sapiens, TE-10, TE10 cell line
[5] = Homo sapiens, TE-11, TE11 cell line
[6] = Homo sapiens, TF-1, TF1 cell line
[7] = Homo sapiens, THP-1, THP1 cell line
[8] = Homo sapiens, TOV112D, TOV112D cell line
[9] = Homo sapiens, TT, T.T cell line
[10] = Homo sapiens, U2OS, U2OS cell line
[11] = Homo sapiens, U-87 MG, U87MG cell line
[12] = Homo sapiens, U-937, U937 cell line
[13] = Homo sapiens, UMUC3, UMUC3 cell line
[14] = Homo sapiens, WM 266-4, WM2664 cell line
[15] = Homo sapiens, WM-115, WM115 cell line
[16] = Homo sapiens, WSUDLCL2, WSUDLCL2 cell line

SMILES: CC(C)c1ccc(N(C)c2ccc3c(c2)OCC[C@H]3CNc2cnccc2C(=O)O)cc1 [Compound 1, 3-({[(4R)-7-{methyl[4-(propan-2-yl)phenyl]amino}-3,4-dihydro-2H-1-benzopyran-4-yl]methyl}amino)pyridine-4-carboxylic acid]
- IC50 (Homo sapiens, TALL-1, TALL1 cell line): 1.8 nM
- EC50 [1]: 6.64 nM
- IC50 [1]: 8.47 nM
- EC50 [2]: 4.83 nM
- IC50 [2]: 6.68 nM
- EC50 [3]: 3.75 nM
- IC50 [3]: 6.89 nM
- EC50 [4]: 9.3 nM
- IC50 [4]: 16.3 nM
- EC50 [5]: 3.85 nM
- IC50 [5]: 4.28 nM
- IC50 (Homo sapiens, TE-15, 168 h, TE15, oesophagus, squamous cell carcinoma, 168 hours): > 10000 nM
- EC50 [6]: 1.58 nM
- IC50 [6]: 2.59 nM
- EC50 [7]: 4.92 nM
- IC50 [7]: 6.15 nM
- EC50 [8]: 4.26 nM
- IC50 [8]: 6.23 nM
- EC50 [9]: 4.37 nM
- IC50 [9]: 6.75 nM
- EC50 [10]: 7.71 nM
- IC50 [10]: 9.01 nM
- EC50 [11]: ≥ 10000 nM
- IC50 [11]: 14.7 nM
- EC50 [12]: 2.73 nM
- IC50 [12]: 2.55 nM
- IC50 (Homo sapiens, UACC-812, 168 h, UACC812, breast, ductal carcinoma, 168 hours): > 10000 nM
- EC50 [13]: 21.9 nM
- IC50 [13]: 39.5 nM
- IC50 (Homo sapiens, VCaP, 168 h, prostate, adenocarcinoma): > 10000 nM
- EC50 [14]: ≥ 10000 nM
- IC50 [14]: 27.5 nM
- EC50 [15]: 2.5 nM
- IC50 [15]: 478 nM
- EC50 [16]: 4.21 nM
- IC50 [16]: 5.67 nM
- AUC (J82 cell line): 0.6749
- AUC (JEKO1 cell line): 0.1172
- AUC (JIMT1 cell line): 0.5519
- AUC (JURKAT cell line): 0.1171
- Emax (JURKAT cell line): 0.212
- AUC (K562 cell line): 0.275
- AUC (KALS1 cell line): 0.6559
- AUC (KARPAS422 cell line): 0.329
- Emax (KARPAS422 cell line): 8.084
- AUC (KASUMI1, haematopoietic and lymphoid tissue, acute myeloid leukaemia, 168 hours): 0.8823
- AUC (KATOIII cell line): 0.49
- AUC (KG1, haematopoietic and lymphoid tissue, acute myeloid leukaemia, 168 hours): 0.9592
- AUC (KM12 cell line): 0.3482
- Emax (KM12 cell line): 12.24
- AUC (KMS11 cell line): 0.3918
- Emax (KMS11 cell line): 9.983
- AUC (KNS62 cell line): 0.4761
- Emax (KNS62 cell line): 18.84
- AUC (KNS81 cell line): 0.6309
- IC50 (KNS81 cell line): > 10000 nM
- AUC (KU1919 cell line): 0.3956
- Emax (KU1919 cell line): 14.57
- AUC (KURAMOCHI, ovary, undifferentiated carcinoma, 168 hours): 0.8742
- AUC (KYSE30 cell line): 0.4434
- Emax (KYSE30 cell line): 38.59
- AUC (KYSE70, oesophagus, squamous cell carcinoma, 168 hours): 0.6942
- AUC (KYSE150 cell line): 0.3052
- AUC (KYSE270 cell line): 0.3062
- AUC (KYSE410 cell line): 0.4156
- Emax (KYSE410 cell line): 21.4639
- AUC (KYSE510 cell line): 0.1998
- AUC (LNCAP cell line): 0.3974
- AUC (LOUCY cell line): 0.188
- EC50 (LOUCY cell line): 2.47 nM
- IC50 (LOUCY cell line): 2.47 nM
- AUC (LOVO cell line): 0.6362
- AUC (LS411N cell line): 0.3851
- Emax (LS411N cell line): 6.415
- AUC (LU65 cell line): 0.4091
- Emax (LU65 cell line): 12
- AUC (LU99, lung, large cell carcinoma, 168 hours): 0.79
- AUC (LUDLU1 cell line): 0.5307
- EC50 (LUDLU-1, LUDLU1 cell line): 12.6 nM
- IC50 (LUDLU-1, LUDLU1 cell line): 25.8 nM
- AUC (MALME3M, skin, NS, 168 hours): 0.9867
- AUC (MC116 cell line): 0.2527
- AUC (MCF7 cell line): 0.6592
- AUC (MDAMB157, breast, ductal carcinoma, 168 hours): 0.8362
- AUC (MDAMB175VII, breast, ductal carcinoma, 168 hours): 0.7385
- AUC (MDAMB231, breast, NS, 168 hours): 0.7262
- AUC (MDAMB361, breast, NS, 168 hours): 1.117
- AUC (MDAMB415, breast, NS, 168 hours): 0.9413
- AUC (MDAMB436, breast, NS, 168 hours): 0.8438
- AUC (MDAMB453 cell line): 0.4524
- Emax (MDAMB453 cell line): 21.95
- AUC (MDAMB468, breast, NS, 168 hours): 0.6972
- AUC (MESSA cell line): 0.4933
- Emax (MESSA cell line): 24.22
- AUC (MEWO, skin, NS, 168 hours): 0.7237
- AUC (MIAPACA2 cell line): 0.3322
- Emax (MIAPACA2 cell line): 9.711
- AUC (MKN1 cell line): 0.3945
- AUC (MKN45 cell line): 0.4427
- Emax (MKN45 cell line): 19.77
- AUC (MOLT4 cell line): 0.1376
- Emax (MOLT4 cell line): 0.6048
- AUC (MPP89 cell line): 0.6384
- IC50 (MPP89 cell line): > 10000 nM
- AUC (MV411 cell line): 0.2163
- AUC (NAMALWA cell line): 0.2431
- EC50 (NAMALWA cell line): 3.27 nM
- IC50 (NAMALWA cell line): 3.21 nM
- IC50 (NCI-H1435, 168 h, NCIH1435, lung, non-small cell carcinoma, 168 hours): > 10000 nM
- EC50 (NCI-H2023, NCIH2023 cell line): 2.84 nM
- IC50 (NCI-H2023, NCIH2023 cell line): 3.03 nM
- EC50 (NCI-H2172, NCIH2172 cell line): ≥ 10000 nM
- IC50 (NCI-H2172, NCIH2172 cell line): 133 nM
